In patent US6518306B1, “1,4-substitued 4,4-diaryl cyclohexanes” (SmithKline Beecham Corporation, priority 1999, dated 2003):

Test system: TNF
Assay: Endotoxic shock models, in vivo TNF activity
Details: endotoxic shock model; serum TNF after endotoxin injection
Text: Two models of endotoxic shock have been utilized to determine in vivo TNF activity for the compounds of Formula (I) and (II). The protocol used in these models is described in Badger et al., EPO published Application 0 411 754 A2, Feb. 6, 1991, and in Hanna. WO 90/15534, Dec. 27, 1990.

In the case of `COc1ccc(C=O)cc1OC1CCCC1` [Example 1, 3-Cyclopentyloxy-4-methoxybenzaldehyde], the “in vivo response in reducing serum levels of TNF induced by the injection of endotoxin” value is reported as “positive in vivo response”.
